This note sets out measurements from PubChem BioAssay (NCI).

Test in all cases: NCI tumour cell line growth inhibition, 48 h
The subject of test [1] is OVCAR-4 ovarian.
In test [2] the test system is COLO 205 colon.
In test [3] the test system is SK-MEL-2 melanoma.
Test [4] concerns DU-145 prostate.
Test [5] relates to MDA-N.
Test [6] concerns A549 NSCLC.
Test [7] concerns TK-10 renal.
Test [8] concerns SW-620 colon.
Test [9] concerns UACC-257 melanoma.
Test [10] deals with MDA-MB-435.
Test [11] concerns SNB-75 CNS.
In test [12] the test system is MDA-MB-231 breast.
The subject of test [13] is HCT-15 colon.
In test [14] the test system is HS 578T breast.
Test [15] concerns EKVX NSCLC.
For test [16], the system named is MOLT-4 leukemia.

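Growth conditions: 96-well plates. Treatment: test compound, 48 hours, 5 concentrations. Analysis: linear interpolation between bracketing concentrations; unreached endpoints set to highest concentration. TGI: total growth inhibition.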

For the molecule `CCCCCCCCCCCC(=O)OCC(O)CO` (stereo not drawn), the TGI in [1], in [2], in test [3], in [4], in test [5] and in [6] was > 100 µM each time. In addition, the TGI in [7], in [8], in test [9], in [10], in test [11] and in test [12] was > 100 µM each time. The TGI in [13], in [14], in test [15] and in test [16] was > 100 µM each time.
Turning to `CCCCCCCCCCCCCCCCNc1nc(=O)n(C2CC(O)C(COP(=O)(O)OC3CC(n4cc(F)c(=O)[nH]c4=O)OC3CO)O2)cc1F` (stereo not drawn), the TGI in test [1] is > 100 µM; in test [2], 47.4 µM; in test [3], > 63.9 µM; in test [4], > 70.6 µM; in test [5], > 100 µM; in test [6], 26.4 µM. The TGI in test [7] was > 100 µM; in test [8], > 100 µM; in [9], > 59 µM; in [10], > 100 µM; in test [11], > 68.8 µM; in test [12], > 91.5 µM. For the same molecule, the TGI in test [13] was 50.9 µM; in test [14], > 100 µM; in test [15], 99.3 µM; in test [16], 17.9 µM.
Regarding `CCc1cccc(CC)c1Nc1nc(-c2ccccc2-c2ccccc2)cs1`, the TGI in test [1], in test [2], in test [3], in test [4], in test [5] and in test [6] was > 100 µM throughout. Moreover, the TGI in [7], in [8], in test [9], in test [10], in test [11] and in [12] was > 100 µM each time. In addition, the TGI in test [13], in [14], in test [15] and in test [16] was > 100 µM in each case.
Consider `Cc1ccc2c(n1)C(=O)c1cc(C)c(C)cc1C2=O`, for which the TGI in [1], in test [2], in [3], in [4], in [5] and in test [6] was > 100 µM each time. For the same molecule, the TGI in test [7] was > 100 µM; in [8] it was > 100 µM; in test [9] it was > 100 µM; in [10], > 100 µM; in test [11], 73 µM; in [12], > 100 µM. The TGI in test [13], in test [14], in test [15] and in [16] was > 100 µM in each case.
As for `Clc1nc(NC23CC4CC(CC(C4)C2)C3)nc(NC23CC4CC(CC(C4)C2)C3)n1`, the TGI was > 100 µM in test [1]; > 100 µM in test [2]; 57.6 µM in test [3]; > 100 µM in [4]; > 100 µM in test [5]; > 100 µM in [6]. Also, the TGI was > 100 µM in test [7]; > 100 µM in test [8]; > 100 µM in [9]; > 100 µM in test [10]; > 78 µM in [11]; > 76.3 µM in [12]. Also, the TGI in [13], in test [14], in test [15] and in test [16] was > 100 µM in each case.
For `CCOC1OC(CO[Si](C)(C)C(C)(C)C)C(O)CC1n1ccc(=O)[nH]c1=O` (stereo not drawn), the TGI in test [1], in test [2], in test [3], in test [4], in test [5] and in test [6] was > 100 µM each time. Besides, the TGI in test [7] was > 100 µM; in test [8] it was 52 µM; in test [9], > 100 µM; in [10], > 100 µM; in test [11] it was > 100 µM; in test [12], > 100 µM. The TGI in test [13] is > 100 µM; in [14] it was > 100 µM; in test [15], > 100 µM; in test [16], 69.1 µM.
Take `CCc1cn(C2CC(CO)C(CO)S2)c(=O)[nH]c1=O` (stereo not drawn): the TGI in [1], in [2], in test [3], in test [4], in [5] and in [6] was > 100 µM in each case. The TGI in [7], in test [8], in [9], in [10], in test [11] and in [12] was > 100 µM throughout. Moreover, the TGI in [13], in [14], in [15] and in test [16] was > 100 µM throughout.
With `CC(C)(CO)CNc1nc(N)nc(Cl)c1C=O`, the TGI in [1] was > 100 µM; in test [2], 72.2 µM; in test [3], 39.2 µM; in test [4], > 100 µM; in test [5], 72.2 µM; in test [6] it was > 100 µM. For the same molecule, the TGI is > 100 µM in [7]; > 100 µM in test [8]; > 100 µM in test [9]; 66.5 µM in test [10]; > 100 µM in [11]; > 100 µM in test [12]. In addition, the TGI is 45 µM in test [13], 70.7 µM in test [14], > 100 µM in test [15] and 59 µM in test [16].
As for `O=C(N/N=C\c1ccc([N+](=O)[O-])cc1)Nc1ccc2ccccc2c1`, the TGI was 46.2 µM in test [1]; 71.3 µM in test [2]; > 100 µM in [3]; > 100 µM in test [4]; > 100 µM in [5]; > 100 µM in [6]. Also, the TGI is 91.3 µM in test [7]; 53.6 µM in [8]; > 100 µM in [9]; > 100 µM in [10]; 68.1 µM in test [11]; 63.8 µM in test [12]. Besides, the TGI was > 100 µM in test [13], 70.6 µM in test [14], > 100 µM in [15] and > 100 µM in test [16].
For the molecule `CC(=O)/C=C1/C(=O)C(CC(C)C)=C1CC(C)C`, the TGI in test [1], in test [2], in test [3], in [4], in test [5] and in [6] was > 100 µM each time. For the same molecule, the TGI in [7], in test [8], in test [9], in test [10], in test [11] and in test [12] was > 100 µM in each case. For the same molecule, the TGI in [13], in [14], in [15] and in test [16] was > 100 µM in each case.
Take `CSc1cc(Cl)c(C(=O)Nc2ccccc2)cc1S(=O)(=O)n1cc[nH]c1=O`: the TGI in test [1], in test [2], in test [3], in test [4], in test [5] and in test [6] was > 100 µM throughout. The TGI in test [7], in test [8], in test [9], in test [10], in test [11] and in test [12] was > 100 µM each time. The TGI in test [13], in test [14], in [15] and in [16] was > 100 µM throughout.
In the case of `CCOP(=O)(OCC)/C(C#N)=C/c1cccn1C`, the TGI in [1], in test [2], in test [3], in [4], in test [5] and in test [6] was > 100 µM each time. Moreover, the TGI in [7], in [8], in test [9], in test [10], in test [11] and in test [12] was > 100 µM each time. The TGI in test [13], in test [14], in test [15] and in test [16] was > 100 µM in each case.
Turning to `CC(C)CC1C(=O)OC(C)(C)OC1=O`, the TGI in test [1], in [2], in [3], in test [4], in test [5] and in [6] was > 100 µM each time. Also, the TGI in [7], in [8], in [9], in test [10], in test [11] and in test [12] was > 100 µM throughout. Further, the TGI in [13], in [14], in [15] and in test [16] was > 100 µM in each case.
With `COc1ccc(/C=C2\CC3C4CC=C5C[C@@H](N6CCCC6)CC[C@]5(C)C4CC[C@]3(C)[C@H]2O)cc1OC` (stereo partly drawn), the TGI was found to be 17.1 µM in [1]; 15.8 µM in test [2]; 14.3 µM in test [3]; 22.4 µM in test [4]; 14.9 µM in test [5]; 17.6 µM in test [6]. Moreover, the TGI is 19.9 µM in test [7]; 50 µM in test [8]; 15.4 µM in test [9]; 14.3 µM in [10]; 22.9 µM in test [11]; 15.1 µM in test [12]. The TGI came out at 14.2 µM in test [13], 26.9 µM in [14], 16.9 µM in test [15] and 38.3 µM in test [16].
As for `CC1=NN(c2nc(N)nc(CCl)n2)C(C)(C)C1`, the TGI was 27 µM in [1]; > 58 µM in test [2]; > 100 µM in test [3]; > 100 µM in test [4]; > 100 µM in [5]; > 100 µM in [6]. For the same molecule, the TGI was > 100 µM in test [7]; > 60.2 µM in test [8]; > 100 µM in [9]; > 100 µM in test [10]; > 75.6 µM in test [11]; 85.7 µM in [12]. Further, the TGI in test [13] was 55.9 µM; in [14], > 100 µM; in test [15], 42.1 µM; in test [16], 50 µM.
For the molecule `COc1ccc2c(c1)C1Oc3ccccc3CC1CO2` (stereo not drawn), the TGI in test [1], in test [2], in test [3], in test [4], in [5] and in [6] was > 100 µM throughout. The TGI in test [7] is > 100 µM; in test [8], > 100 µM; in test [9], > 100 µM; in test [10], > 100 µM; in test [11], 98.7 µM; in test [12], > 100 µM. The TGI in [13] was > 100 µM; in [14], > 100 µM; in test [15], > 100 µM; in test [16], 52.9 µM.
With `N#Cc1ccccc1NC(=O)C(O)C(O)C(O)C(O)C=O` (stereo not drawn), the TGI in test [1], in test [2], in test [3], in test [4], in test [5] and in test [6] was > 100 µM throughout. The TGI in test [7], in test [8], in test [9], in test [10], in test [11] and in test [12] was > 100 µM throughout. In addition, the TGI in test [13], in test [14], in [15] and in test [16] was > 100 µM throughout.
`CCSc1c2cc(OC)ccc2nc2ccc(OC)cc12`: the TGI is > 75.8 µM in test [1]; > 45.3 µM in [2]; 48.7 µM in test [3]; > 72.5 µM in [4]; 21.7 µM in [5]; > 100 µM in [6]. The TGI in test [7] is > 43.7 µM; in [8] it was > 100 µM; in test [9] it was 30.4 µM; in test [10] it was > 57.7 µM; in test [11], 40.3 µM; in [12] it was 44.6 µM. Moreover, the TGI in test [13] was > 100 µM; in [14], > 100 µM; in test [15], > 54 µM; in [16], > 34.5 µM.
